Details of data set [1]: method as in doi:10.1135/cccc20011375. The conditions noted are these: cited from earlier work.
In data set [2] the test system is newly transformed schistosomula (NTS) of S. mansoni. The data set is described as follows: Phenotypic assay with newly transformed schistosomula (NTS). The class given is cell-based, Schistosoma mansoni. The following applies: for Severity score: scale 0 (no effect) to 4 (most severe); for anti-schistosomal effect against NTS (in words): 1 and 10 μM, three days. How it is done:
Newly transformed schistosomula (NTS) of S. mansoni were prepared by mechanically transforming infective larvae (cercariae) as described previously.[47,57] NTS (200–300 parasites) were incubated in flat-bottomed 96-well plates in 200 μL of Basch medium 169[60] containing 5% FBS (ThermoFisher Scientific), 100 U mL^−1 penicillin and 100 μg mL^−1 streptomycin (ThermoFisher Scientific), at 5% CO2 and 37 °C.[61,62] Inhibitors were added at final concentration of 1 or 10 μM,[43,47] and changes in phenotype were observed every 24 h for up to 72 h. A constrained nomenclature of ‘descriptors’[49,57] is used to record the multiple and dynamic changes in movement, shape and translucence that the schistosome parasite is capable of (Fig. S1). These descriptors are then converted into an ordinal ‘severity score’ system from 0 (no effect) to 4 (maximum effect), which allows for the relative comparison of compound effects, as described previously.[63]

For data set [3], the target named is SmCB1 (Schistosoma mansoni, UniProt Q8MNY2, T185A/T300A). The data set is described as follows: biochemical. The conditions noted are these: for Ki SmCB1: kinetic activity assay, triplicate, pH 5.5, 37 °C. An excerpt:
(§1) Enzymatic activity was monitored either fluorometrically with peptide–AMC substrates, which release 7-amino-4-methylcoumarin (AMC) as a fluorescent product, or spectrophotometrically with peptide–pNA substrates, which liberate p-nitroaniline (pNA). Reaction rates were obtained from the slopes of the linear progress curves and expressed as relative fluorescence units per second (RFU s^−1) or as absorbance units per second (AU s^−1). […] The standard errors of measurements refer to the non-linear regression analysis.
(§2) A non-glycosylated mutant of the SmCB1 zymogen was expressed in the yeast Pichia pastoris, activated by S. mansoni legumain and purified as described previously.[25,43,58] Kinetic measurements were performed in triplicate in 96-well microplates (100 μL assay volume) at 37 °C. […] Substrate hydrolysis was measured fluorometrically in an Infinite M1000 microplate reader (Tecan) at excitation and emission wavelengths of 360 and 465 nm, respectively. Inhibition assays for human cathepsins and cruzain are described in Supplemental Experimental Procedures.

A further data set has as its target T1, human cathepsin B (Homo sapiens, UniProt P07858).
T1 construct: purchased Calbiochem
In words: Cathepsin B inhibition assay with chromogenic substrate Cbz-Arg-Arg-pNA. The class given is biochemical. The conditions noted are these: kinetic activity assay; for Ki: read-out: Ki Cat B.
From the text: as §1
(§3) Enzymatic Assay Materials
(§4) Human cathepsin B was purchased from Calbiochem, and human cathepsins K, L, and S from Enzo. […]
(§5) Stock solutions of the […]
inhibitors and substrates were prepared in DMSO.
Cathepsin B Inhibition Assay
Kinetic measurements were performed in duplicate in cuvettes (1 mL assay volume) at 37 °C, as described.18-20 Human cathepsin B was activated by a 1:500 dilution with assay buffer (100 mM sodium phosphate, pH 6.0, 100 mM NaCl, 5 mM EDTA, 0.01% Brij 35) containing 5 mM DTT and then incubated at 37 °C for 30 min.
Into a cuvette containing 960 µL assay buffer, 5 µL of the chromogenic substrate Cbz-Arg-Arg-pNA, DMSO and inhibitor solution (15 µL) were pipetted. After addition of cathepsin B (20 µL), substrate hydrolysis was measured spectrophotometrically in a VARIAN/Bio-50/100 photometer at 405 nm for 20 min. […]

Another data set addresses T2, human cathepsin S (Homo sapiens, UniProt P25774).
T2 construct: purchased Enzo
The data set is described as follows: Cathepsin S inhibition assay. The format is biochemical. The conditions noted are these: duplicate measurements; read-out: Ki cat S. As for the experimental part:
Cathepsin S Inhibition Assay
Kinetic measurements were performed in duplicate in 96-well microplates (100 µL assay volume) at 25 °C, as described.18-20 Human recombinant cathepsin S was activated by 1:100 dilution with assay buffer (100 mM sodium citrate, pH 6.0 containing 50 mM NaCl, 2 mM EDTA, 0.01% Triton X-100) containing 5 mM DTT, and then incubated at 37 °C for 60 min. Into a well containing 184 µL assay buffer, 0.8 µL of the fluorogenic substrate Cbz-Phe-Arg-AMC, DMSO and inhibitor solution (3.2 µL) were pipetted. After addition of cathepsin S (12 µL), substrate hydrolysis was measured for 20 min fluorometrically on a FLUOSTAR Optima plate reader at excitation and emission wavelengths of 360 and 440 nm, respectively. The final concentrations of Cbz-Phe-Arg-AMC, cathepsin S and DMSO were 40 µM (= 0.74 × Km), 42 ng mL-1 and 2%, respectively. […]

A further data set deals with T3, cruzain (Trypanosoma cruzi, UniProt P25779).
T3 construct: Recombinant cruzain, consisting of the catalytic domain without the C-terminal extension; made in house
The data set is described as follows: Cruzain inhibition assay. The class given is biochemical. The conditions noted are these: duplicate measurements.
From the text: as §1
Enzymatic Assay Materials […]
Recombinant cruzain, consisting of the catalytic domain without the C-terminal extension, was expressed and purified as described previously.16,17 All substrates were purchased from Bachem. Stock solutions of the inhibitors and substrates were prepared in DMSO. […]
Kinetic measurements were performed in duplicate with a fluorometric assay (Biotek SynergyTM HT) using Corning 96-well black microplates (200 µL assay volume) at 25 °C. Recombinant cruzain was incubated in 100 mM sodium acetate, pH 5.5, 5 mM DTT, 0.01 % Triton X-100 for 20 min, followed by an additional 2 min incubation with inhibitors before the reaction was started by the addition of the fluorogenic substrate Cbz-Phe-Arg-AMC. Substrate hydrolysis was measured for 5 min fluorometrically at excitation and emission wavelengths of 360 and 460 nm, respectively. […]

A further data set addresses T4, human cathepsin L (Homo sapiens, UniProt P07711).
T4 construct: Human isolated cathepsin L; purchased Enzo
The data set is described as follows: Cathepsin L inhibition assay. The format is biochemical. The following applies: duplicate measurements; read-out: Ki cat L. How it is done: Cathepsin L Inhibition Assay
Kinetic measurements were performed in duplicate in cuvettes (1 mL assay volume) at 37 °C, as described.18-20 Human isolated cathepsin L was activated by a 1:100 dilution with assay buffer (100 mM sodium phosphate buffer, pH 6.0, 100 mM NaCl, 5 mM EDTA, 0.01% Brij 35) containing 5 mM DTT, and then incubated at 37 °C for 30 min. Into a cuvette containing 940 µL assay buffer, 10 µL of the chromogenic substrate Cbz-Phe-Arg-pNA, DMSO and inhibitor solution (10 µL) were pipetted. After the addition of cathepsin L (40 µL), substrate hydrolysis was measured for 20 min spectrophotometrically in a VARIAN/Bio-50/100 photometer at 405 nm. […]
Arg-AMC, cathepsin S and DMSO were 40 µM (= 0.74 × Km), 42 ng mL-1 and 2%, respectively. […]

In the next data set the target is T5, human cathepsin K (Homo sapiens, UniProt P43235).
T5 construct: purchased Enzo
T5 sequence (P43235 115-329): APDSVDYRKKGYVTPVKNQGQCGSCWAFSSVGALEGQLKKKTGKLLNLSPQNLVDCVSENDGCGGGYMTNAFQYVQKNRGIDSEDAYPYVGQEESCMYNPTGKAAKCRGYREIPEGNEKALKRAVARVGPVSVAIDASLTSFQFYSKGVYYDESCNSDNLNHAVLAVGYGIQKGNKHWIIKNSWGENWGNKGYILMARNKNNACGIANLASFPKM
In words: Cathepsin K inhibition assay. The class given is biochemical. The following applies: duplicate measurements; read-out: Ki cat K.
From the text: as §1, §3, §4, §5
inhibitors and substrates were prepared in DMSO. […]
Cathepsin K Inhibition Assay
Kinetic measurements were performed in duplicate in 96-well microplates (100 µL assay volume) at 25 °C, as described.18-20 Human recombinant cathepsin K was activated by a 1:100 dilution with assay buffer (100 mM sodium citrate, pH 5.0, 100 mM NaCl, 1 mM EDTA, 0.01% CHAPS) containing 5 mM DTT, and then incubated at 37 °C for 30 min. […] After addition of cathepsin K (2 µL), substrate hydrolysis was measured for 20 min fluorometrically in a FLUOSTAR Optima plate reader at excitation and emission wavelengths of 360 and 440 nm, respectively. […]

The subject of data set [4] is SmCB1. In words: biochemical. The following applies: ratio of Ki values.
From the text: as §1, §2

Consider five compounds from PMC12538275, “Fat or flat? The impact of dipole moment vectors on non-covalent interactions between aromatic tags and macromolecules” (Inorganic Chemistry Frontiers, 2025).

T4 sequence (P07711 114-333): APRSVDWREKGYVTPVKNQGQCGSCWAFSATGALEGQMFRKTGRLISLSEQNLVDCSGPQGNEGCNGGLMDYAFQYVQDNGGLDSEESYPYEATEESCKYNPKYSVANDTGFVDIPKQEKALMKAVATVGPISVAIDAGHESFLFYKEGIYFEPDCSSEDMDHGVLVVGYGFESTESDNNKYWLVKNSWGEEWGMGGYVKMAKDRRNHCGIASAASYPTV
T2 sequence (P25774 115-331): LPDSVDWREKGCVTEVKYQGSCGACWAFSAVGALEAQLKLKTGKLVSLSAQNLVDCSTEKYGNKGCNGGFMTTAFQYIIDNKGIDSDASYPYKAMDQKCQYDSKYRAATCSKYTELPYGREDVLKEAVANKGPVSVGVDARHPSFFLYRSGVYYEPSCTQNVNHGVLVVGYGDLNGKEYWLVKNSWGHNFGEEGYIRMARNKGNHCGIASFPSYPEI
T3 sequence (P25779 123-337 limits assumed): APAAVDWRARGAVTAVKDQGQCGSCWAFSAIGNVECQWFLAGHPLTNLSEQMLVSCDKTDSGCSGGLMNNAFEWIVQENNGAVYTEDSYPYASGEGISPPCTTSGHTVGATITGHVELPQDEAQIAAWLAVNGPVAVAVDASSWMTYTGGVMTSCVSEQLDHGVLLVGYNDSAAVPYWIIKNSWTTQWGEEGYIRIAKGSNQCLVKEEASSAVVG

Turning to 9-phenyl ortho-carborane, the dipole moment in [1] is on record as 5.0 D.

For 9-SH-closo-1,2-C2B10H11 [compound 2], the Severity score was determined as 0 in data set [2] (1 μM, 24 h); 0 in data set [2] (1 μM, 48 h); 0 in data set [2] (1 μM, 72 h); 0 in data set [2] (10 μM, 24 h); 0 in data set [2] (10 μM, 48 h); 0 in data set [2] (10 μM, 72 h). In addition, the “anti-schistosomal effect against NTS (in words)” value (“anti-schistosomal effect” below) in data set [2] was “ineffective”. On SmCB1 [3], the “Ki SmCB1” value was “inactive”. On human cathepsin B, the “Ki Cat B” value is listed as “weak inhibition”. Besides, the Ki (as a rule, a dissociation constant, usually derived from enzyme kinetics or from competition with a known ligand) on human cathepsin B was found to be 43800 ± 5600 nM.

Consider “closo-1,2-C2B10H12 [compound 1, reference compound]”, for which the Severity score in data set [2] (1 μM, 24 h) came to 0; in data set [2] (1 μM, 48 h), 0; in data set [2] (1 μM, 72 h), 0; in [2] (10 μM, 24 h) it was 0; in [2] (10 μM, 48 h), 0; in [2] (10 μM, 72 h), 0. The “anti-schistosomal effect” value in [2] was “ineffective”. Besides, the “Ki SmCB1” value at SmCB1 [3] is “inactive”. Besides, the dipole moment in [1] is on record as 4.5 D. Also, the “Ki Cat B” value on human cathepsin B was “inactive”. Besides, the Ki at human cathepsin B is greater than 100000 nM.

`CC(C)(C)OC(=O)N[C@@H](Cc1cccc(Cl)c1)C(=O)NC1(C#N)CC1` [compound 4]: the Ki amounted to 96 ± 9 nM on human cathepsin S; 750 ± 20 nM on cruzain; 27100 ± 3200 nM at SmCB1 [3]; 250 ± 20 nM at human cathepsin L; 15500 ± 1700 nM on human cathepsin B; 1850 ± 230 nM on human cathepsin K. Besides, the Severity score in data set [2] (1 μM, 24 h) came to 0; in data set [2] (1 μM, 48 h), 0; in data set [2] (1 μM, 72 h), 0; in data set [2] (10 μM, 24 h) it was 0; in data set [2] (10 μM, 48 h), 0; in [2] (10 μM, 72 h), 0. In addition, the “anti-schistosomal effect” value in [2] is recorded as “ineffective”.

Consider `N#CC1(NC(=O)[C@H](Cc2cccc(Cl)c2)NC(=O)CSc2ccccc2)CC1` [5a], for which the Ki was 210 ± 30 nM at human cathepsin S; 460 ± 10 nM at cruzain; 14300 ± 2400 nM at SmCB1 [3]; 370 ± 20 nM on human cathepsin L; 6800 ± 500 nM at human cathepsin B; 1410 ± 260 nM at human cathepsin K. Also, the Severity score in [2] (1 μM, 24 h) is 0; in data set [2] (1 μM, 48 h) it was 0; in [2] (1 μM, 72 h), 0; in data set [2] (10 μM, 24 h), 0; in data set [2] (10 μM, 48 h), 0; in data set [2] (10 μM, 72 h) it was 0. The “anti-schistosomal effect” value in data set [2] was “ineffective”. In addition, the “Selectivity Ki (cat B)/Ki (SmCB1)” value in the data set with SmCB1 [4] was found to be 0.5.
